Where a name gives a salt, the structure may show the parent alone.
What was measured:
[1] = system: ultrapure calf thymus DNA 13 kb; assay: DNA compaction: electrophoresis in agarose gel with ethidium bromide as stain; type: binding; conditions: control substances, wells B-H and b (10 λ to 1 λ diluted 1:10)
5 kbp DNA = assay: Atomic force microscopy (AFM, tapping mode) of DNA incubated with compound; conditions: 5 kbp DNA incubated with compound
Text: The DNA-bguan interaction was confirmed with UV absorption spectra. The absorption maximum and the shape of the absorbance curve of DNA changed appreciably in the presence of 1 equivalent bguan, indicating a distinct change of its structure in buffer solution. In addition, when a 5 kbp DNA was examined under the atomic force microscope (AFM) in the tapping mode, nematoid (long warm-like) formations of up to 1 μm were observed. […] This actually proves that DNA compacts not in big aggregates but in nanoparticles of size suitable to cross a cell membrane.

HeLa cells = assay: Cell penetration of FITC-labeled compounds by fluorescence microscopy; type: cell-based, human; conditions: 100 or 200 μM, 1 h incubation at 37° C.

OC[C@H]1O[C@@H]2O[C@H]3[C@H](O)[C@@H](O)[C@@H](O[C@H]4[C@H](O)[C@@H](O)[C@@H](O[C@H]5[C@H](O)[C@@H](O)[C@@H](O[C@H]6[C@H](O)[C@@H](O)[C@@H](O[C@H]7[C@H](O)[C@@H](O)[C@@H](O[C@H]8[C@H](O)[C@@H](O)[C@@H](O[C@H]1[C@H](O)[C@H]2O)O[C@@H]8CO)O[C@@H]7CO)O[C@@H]6CO)O[C@@H]5CO)O[C@@H]4CO)O[C@@H]3CO [β-cyclodextrin]
interaction with DNA under the electrophoresis conditions [1]: do not display any kind of interaction with DNA

NCCNCC1OC2OC3C(CNCCN)OC(OC4C(CNCCN)OC(OC5C(CNCCN)OC(OC6C(CNCCN)OC(OC7C(CNCCN)OC(OC8C(CNCCN)OC(OC1C(O)C2O)C(O)C8O)C(O)C7O)C(O)C6O)C(O)C5O)C(O)C4O)C(O)C3O (stereo not drawn) [bpen, Heptakis(6-deoxy-6-aminoethylamino)-β-cyclodextrin]
elongated (nematoid) DNA forms under AFM (5 kbp DNA): complete absence of the elongated forms
diameter of round DNA nanoparticles (5 kbp DNA; AFM): ~40 nm

N=C(N)N [guanidine hydrochloride]
interaction with DNA under the electrophoresis conditions [1]: do not display any kind of interaction with DNA

fluorescein isothiocyanate [treated FITC]
fluorescence inside the cytoplasm (HeLa cells): did not show any fluorescence

Source: patent publication US7834174B2, “Per-6-guanidino-, alkylamino-cyclodextrins, methods of their synthesis and their use for the compaction of DNA and intercellular delivery” (priority 2004, dated 2010)
